Measured values from publication PMC6416395, “B1.12: a novel peptide interacting with the extracellular loop of the EBV oncoprotein LMP1” (Scientific Reports, 2019).
“Also recorded” adds a separate entry of the source. Residues, ends and D or L forms follow the SMILES beside them.

Tests used:
[1] = test system: B1 peptide (first extracellular loop of LMP1); assay: NMR titration of B1/B1.12 interaction; type: binding, Epstein-Barr virus (EBV); details: H2O/D2O (90:10), 500 MHz
Description: The NMR experiments samples were prepared in 500 μL of H2O/D2O (90:10); using 1 mM of B1 peptide and 21 mM of B1.12 peptide. Titration experiment was also performed with varying the B1:B1.12 proportions (1:1; 3:1; 5:1; 7:1; 9:1). The NMR experiments were recorded on a Bruker spectrometer 500 MHz equipped with a TCI cryoprobe. Acquisition was performed with water suppression with excitation sculpting pulse sequence.

C666.1 cells = assay: Cell cycle analysis, C666.1; type: cell-based; details: C666.1, 50 µM peptide
Description: (§1) Cell cycle analysis of C666.1 and HT29 cells was performed using the FXcycleTm PIi/RNnase staining solution (Invitrogen). Briefly, cells (4 × 10^5) were seeded and grown for 24 hours, and then incubated with serum-free RPMI for another 24 hours (starvation) to decrease cell constitutive signaling. After starvation, cells were incubated or not with 50 µM B1.12 peptide (C666.1 and HT29 cells) or control peptide (C666.1 cells) for 48 hours. Following incubation, cells were washed with PBS, trypsinized and centrifuged at 1200 rpm for 5 minutes. The cell pellet was then washed twice with PBS, and cells were fixed with 5 mL of ethanol 70% for 24 hours at 4 °C. Aliquots of 2 × 10^5 ethanol-fixed cells were then centrifuged for 5 minutes at 450 g, washed with PBS, and then resuspended in Propidium Iodide Reagent and incubated for 30 minutes at room temperature, shielded from light. The data were collected and analyzed by an Attune NxT Flow Cytometer (Thermofisher).

HT29 cells = assay: Cell cycle analysis, HT29; type: cell-based, human; details: HT29, 50 µM peptide
Description: Three cell lines were used: C666-1 which is a native EBV-infected NPC-derived cell line constitutively expressing LMP1, HeLa cells transfected with native vector (Gpt) or harboring the cDNA encoding LMP1, and HT-29 which is a human colon cancer cell line All cells were maintained in RPMI medium 1640 supplemented with 5% (V/V) FBS (Gibco), 4 µg/mL Gentamycine and 2 mM L-glutamine at 37 °C in a humidified atmosphere of 5% CO2. These cell lines were kindly provided by Pr P. Busson (IGR-France).
as §1, with “Aliquots of 2 × 10^5 ethanol-fixed cells were then centrifuged for 5 minutes at 450 g, washed with PBS, and then resuspended in Propidium Iodide Reagent and incubated for 30 minutes at room temperature, shielded from light.” left out

A20 (TNFAIP3) = assay: RT-qPCR A20 expression in C666.1 cells; type: cell-based; details: B1.12-treated versus untreated C666.1, RT-qPCR normalised to GAPDH, n = 3 biological replicates
From the text: Total RNA from C666.1 cells treated or not with B1.12 and control peptides was extracted using TRIzol reagent. cDNA was synthetized using the reverse transcription kit (Invitrogen), and served as a template for detecting A20 gene expression by Real-time quantitative PCR using SYBR Premix Ex Taq (Tli RNase H Plus, Takara) and using CFX96 (Biorad). The housekeeping gene GAPDH was used as an internal control to normalize the expression levels of the gene. The primers used for the amplification of the A20 gene are as follows: forward: 5′-[…]-3′, and reverse: 5′-GGCGAAATTGGAACCTGA TTCCAAACTT-3′. Relative quantification of mRNA expression was performed by the comparative 2−ΔΔct method to calculate the difference between amplifications of A20 and GAPDH. […]

[2] = propidium iodide FACS, 24 h (48 h elsewhere in the source)

CC(C)C[C@H](NC(=O)[C@H](CC(=O)O)NC(=O)[C@H](CC(C)C)NC(=O)[C@@H]1CCCN1C(=O)[C@H](CS)NC(=O)[C@H](C)N)C(=O)N[C@@H](CCCNC(=N)N)C(=O)N[C@@H](CO)C(=O)N1CCC[C@H]1C(=O)N[C@@H](CS)C(=O)NCC(N)=O [B1.12] (H-ACPLDLRSPCG-NH2; N-terminus and C-terminus assumed)
binding to target B1 (NMR) ([1]; 1 mM B1, 21 mM B1.12): bound specifically to its target B1 | B1 residues showing chemical shift variation ([1]; B1:B1.12 titration 1:1 to 9:1): Met2, Trp5 and Thr6; also recorded: Met^2, Trp^5 and Thr^6 | cell cycle progression versus untreated (in words) (C666.1 cells): inducing G0/G1 cell cycle arrest | cells in G0/G1 phase (C666.1 cells; [2]): 73% | cell cycle phases versus untreated (in words) (HT29 cells): the cell cycle phases still unchanged | cells in G0/G1 phase (HT29 cells; [2]): 78.3% | A20 expression level (A20 (TNFAIP3)): the expression of A20 decreased compared to untreated cells; also recorded: the A20 level decreased in the C666.1 cells after B1.12 treatment
